Consider one molecule from US6255347A (priority 1997, dated 2001).

Values joined by “and” are separate entries in the source; they are usually repeats but may differ in a detail not shown here. Identical values can stand only once.

This assay has as its system APPs secretion by NIH 3T3 cell lines. The conditions noted are these: 50 μM, 20 h culture, n = 2, mean ± S.D.

Consider `CC(C(=O)O)c1cccc(C(=O)c2ccccc2)c1` (stereo not shown) [RS-Ketoprofen], for which the “Density of APPs band” value is 3.67 ± 0.27 and 2.94 ± 0.98.
